Among the data in the Bradley open melting point set (2014) are melting point values, retold here.

“And” between values parts separate entries of the source, which are not always exact repeats. Identical values can stand only once. Counter-ions that a name gives are not always drawn.

Take `O=C(CCl)Oc1ccc([N+](=O)[O-])cc1` [4-nitrophenyl chloroacetate]: the melting point (in general, the temperature, or range, at which the solid turns liquid) amounted to 94 °C.

Turning to `Cl/C=C/Cl` [trans-1,2-dichloroethylene], the melting point is -50 °C.

Molecule `O=C1Cc2ccccc2C(=O)O1` [homophthalic anhydride] came in with a melting point of 142 °C.

In turn, `O=C(CCCN1CCC(n2c(=O)[nH]c3ccccc32)CC1)c1ccc(F)cc1` [benperidol] came in with a melting point of 170 °C.

For `CCOC=O` [ethyl formate], the melting point was -81 °C.

For `CC(=O)c1c(C)c(C)c(C)c(C)c1C` [2',3',4',5',6'-pentamethylacetophenone], the melting point amounted to 86 °C.

Molecule `O=C(O)c1ccc([N+](=O)[O-])c(O)c1` [3-hydroxy-4-nitrobenzoic acid] registered a melting point of 234 °C.

`CC1=CC(=O)OC1=O` [citraconic anhydride]: the melting point is 8 °C.

Molecule `CCCC(C)(COC(N)=O)COC(N)=O` [meprobamate] returned a melting point of 105 °C.

`CC(=O)c1sc(-c2ccccc2)cc1N` [2-acetyl-3-amino-5-phenylthiophene] gave a melting point of 121 °C.

`OB(O)c1ccc(F)cc1` [4-fluorobenzeneboronic acid] showed a melting point of 263 °C.

`COC(C)(C)C` [2-Methoxy-2-methylpropane] gave a melting point of -109 °C.

For `ClC1/C=C\C2C3(Cl)C(\Cl)=C(\Cl)C(Cl)(C12)C3(Cl)Cl` (stereo unspecified) [heptachlor], the melting point was 95 °C and 95.5 °C.

In turn, `O=C(OC(=O)C(F)(F)F)C(F)(F)F` [Trifluoroacetic anhydride] registered a melting point of -63 °C.

The molecule `Oc1ccccc1Br` [2-bromophenol] yielded a melting point of 5 °C.

In turn, `NNC(=O)COc1ccc(Cl)cc1Cl` [2,4-dichlorophenoxyacetic acid hydrazide] yielded a melting point of 151 °C.

Regarding `CN(C)CCCN1c2ccccc2Sc2ccc(Cl)cc21` [chlorpromazine], the melting point was determined as 57 °C.

`O=[N+]([O-])c1cc[n+]([O-])c(Cl)c1F` [2-chloro-3-fluoro-4-nitropyridine n-oxide] gave a melting point of 177 °C.

Take `Nc1nc2c(ncn2COCCO)c(=O)[nH]1` [acyclovir]: the melting point was 265 °C.

Regarding `CCC(C)C` [Isopentane], the melting point is -160 °C.

Turning to `CC(C=CC=C(C)/C=C/C1=C(C)CCCC1(C)C)=CC(=O)O` [Tretinoin], the melting point is 181 °C.

In turn, `CCC#N` [Propiononitrile] displayed a melting point of -92 °C.

The molecule `O=C(O)C1(C(=O)O)CC1` [1,1-cyclopropanedicarboxylic acid] displayed a melting point of 132 °C.

`CCCCCCCCCCCC(C)=O` [Tridecan-2-one] registered a melting point of 24 °C.

The molecule `O[C@@H]1OC[C@@H](OCc2ccccc2)[C@@H](OCc2ccccc2)[C@@H]1OCc1ccccc1` [2,3,4-tri-o-benzyl-beta-D-arabinopyranose] had a melting point of 69 °C.

For the molecule `c1ccc2c(c1)CCCN2` [1,2,3,4-tetrahydroquinoline], the melting point was found to be 14 °C.

For the molecule `c1ccc2c(c1)CC1(OCCO1)c1ccccc1CC21OCCO1`, the melting point came out at 144 °C.

In the case of `O=C1Nc2c(Br)cccc2C1=O` [7-bromoisatin], the melting point was 197 °C.

On to `CCOc1ccc(C#N)cc1` [4-ethoxybenzonitrile], for which the melting point came to 62 °C.

Molecule `c1ccc(CCc2ccccc2)cc1` [1,2-Diphenylethane] showed a melting point of 51.5 °C.

`C1CCC2OCCOCCOC3CCCCC3OCCOCCOC2C1` (stereo unspecified) [dicyclohexano-18-crown-6] had a melting point of 50 °C.

`O=c1[nH]c2ccccc2n1CCCN1CCC(n2c(=O)[nH]c3cc(Cl)ccc32)CC1` [Domperidone] had a melting point of 242 °C.

`OB(O)c1ccc(Cl)cc1C(F)(F)F` [4-chloro-2-(trifluoromethyl)benzeneboronic acid] came in with a melting point of 181 °C.

In turn, `CC(=O)Nc1ccc(O)cc1` [acetaminophen] returned a melting point of 170 °C.

Molecule `Nc1ccc(F)cc1F` [2,4-Difluoroaniline] yielded a melting point of -7.5 °C.

`C=CC(=C)C` [isoprene] came in with a melting point of -146 °C.

`O=C(O)c1cccc(Br)c1` [m-bromobenzoic acid] yielded a melting point of 157 °C.

In turn, `COc1ccc(/C=C/c2cccc(OC)c2O)cc1OC` [2-[(E)-2-(3,4-Dimethoxyphenyl)vinyl]-6-methoxyphenol] showed a melting point of 165 °C.

In the case of `CCC(=O)OC(=O)CC` [propionic anhydride], the melting point is -44 °C.

Molecule `CC(=O)Nc1ccc(O)cc1` [4-acetylaminophenol] displayed a melting point of 170 °C.

For the molecule `CC(C)C(C)(C)C(C)(C)C` [2,2,3,3,4-pentamethylpentane], the melting point is -36 °C.

`O=Cc1ccc(O)c(O)c1O` [2,3,4-trihydroxybenzaldehyde]: the melting point was 167 °C.

In turn, `COS(=O)(=O)c1ccc(C)cc1` [methyl_p-toluenesulfonate] returned a melting point of 79 °C.

Take `O=[N+]([O-])c1cc(C=Nc2ccccc2)ccc1C=Nc1ccccc1` [N,N'-[(2-nitrobenzene-1,4-diyl)di(E)methylylidene]dianiline]: the melting point came to 134 °C.

Turning to `O=C(O)CCCC[C@@H]1CCSS1` [5-[(3R)-1,2-Dithiolan-3-yl]pentanoic acid], the melting point was found to be 60 °C.

`N#Cc1ccc(Oc2ccccc2)cc1` [4-phenoxybenzonitrile] yielded a melting point of 44 °C.

As for `Fc1ccc(Cl)cc1` [1-chloro-4-fluorobenzene], the melting point is -22 °C.

`Nc1c(Br)cc(Br)cc1Br` [2,4,6-Tribromoaniline] displayed a melting point of 121 °C.

Regarding `N#CCc1cccc(C#N)c1` [m-cyano_phenylacetonitrile], the melting point was 87 °C.

With `N#Cc1ccccc1N1CCCCC1` [2-(1-piperidinyl)benzonitrile], the melting point was determined as 43 °C.

`CC[C@H]1OC(=O)[C@H](C)[C@@H](O[C@H]2C[C@@](C)(OC)[C@@H](O)[C@H](C)O2)[C@H](C)[C@@H](O[C@@H]2O[C@H](C)C[C@H](N(C)C)[C@H]2O)[C@](C)(O)C[C@@H](C)C(=O)[C@H](C)[C@@H](O)[C@]1(C)O` [erythromycin] yielded a melting point of 191 °C.

The molecule `CCN(CC)c1ccc2c(C)cc(=O)oc2c1` [7-diethylamino-4-methylcoumarin] came in with a melting point of 74 °C.

The molecule `ClCCCCCl` [1,4-dichlorobutane] registered a melting point of -37 °C.

As to `O=[N+]([O-])c1ccc(Cl)c(Cl)c1Cl` [2,3,4-Trichloronitrobenzene], the melting point came out at 55.5 °C.

The molecule `C/C=C/c1ccc(O)c(OC)c1` [isoeugenol, cis trans] showed a melting point of -10 °C.

`NC(=O)c1ccccc1Br` [2-bromobenzamide]: the melting point came out at 161 °C.

The molecule `O=C1OC2(c3ccccc31)c1ccc(O)c(Br)c1Oc1c2ccc(O)c1Br` [4',5'-dibromofluorescein] gave a melting point of 272 °C.

In the case of `CC1(C)OC(=O)C(=Cc2cccc([N+](=O)[O-])c2)C(=O)O1`, the melting point was determined as 177 °C.

For the molecule `CCn1c2ccccc2c2ccccc21` [9-Ethyl-9H-carbazole], the melting point was determined as 69 °C.

`COc1ccc(Br)c(OC)c1C(=O)O` [3-bromo-2,6-dimethoxybenzoic acid]: the melting point is 146 °C.

The molecule `CC(=O)O` [acetic acid] registered a melting point of 17 °C.
